Assay [1] has as its target T1, DGKα (hDGKalpha(1-735)-N-His) (Homo sapiens, UniProt P23743).
T1 construct: hDGKalpha(1-735)-N-His; His (N); made in house; host or cells: Sf21 insect cells (baculovirus)
The assay can be described thus: In vitro DGK inhibition assay, DGKalpha ADP Glo (in house). It is filed as biochemical. The settings on record: 4 nM DGKα, 25 μM ATP, 125 uM DLG in liposomes, 1 hour reaction. Put shortly:
(§1)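 ADP-Glo luminescence measured ADP formed over 1 h by Sf21-expressed full-length human enzymes: DGKα at 4 nM with 25 µM ATP, DGKζ at 2 nM with 50 µM ATP, both on 125 µM DLG in PS/PC liposomes. Dose–response used 11 threefold dilutions at 2% final DMSO.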
On the technique in general: ADP-Glo first removes unused ATP, then detects ADP through luciferase.

In assay [2] the target is T2, DGKζ (hDGKzeta(1-928)-N-His) (Homo sapiens, UniProt Q13574).
T2 construct: hDGKzeta(1-928)-N-His; His (N); made in house; host or cells: Sf21 insect cells (baculovirus)
T2 sequence (Q13574 whole entry): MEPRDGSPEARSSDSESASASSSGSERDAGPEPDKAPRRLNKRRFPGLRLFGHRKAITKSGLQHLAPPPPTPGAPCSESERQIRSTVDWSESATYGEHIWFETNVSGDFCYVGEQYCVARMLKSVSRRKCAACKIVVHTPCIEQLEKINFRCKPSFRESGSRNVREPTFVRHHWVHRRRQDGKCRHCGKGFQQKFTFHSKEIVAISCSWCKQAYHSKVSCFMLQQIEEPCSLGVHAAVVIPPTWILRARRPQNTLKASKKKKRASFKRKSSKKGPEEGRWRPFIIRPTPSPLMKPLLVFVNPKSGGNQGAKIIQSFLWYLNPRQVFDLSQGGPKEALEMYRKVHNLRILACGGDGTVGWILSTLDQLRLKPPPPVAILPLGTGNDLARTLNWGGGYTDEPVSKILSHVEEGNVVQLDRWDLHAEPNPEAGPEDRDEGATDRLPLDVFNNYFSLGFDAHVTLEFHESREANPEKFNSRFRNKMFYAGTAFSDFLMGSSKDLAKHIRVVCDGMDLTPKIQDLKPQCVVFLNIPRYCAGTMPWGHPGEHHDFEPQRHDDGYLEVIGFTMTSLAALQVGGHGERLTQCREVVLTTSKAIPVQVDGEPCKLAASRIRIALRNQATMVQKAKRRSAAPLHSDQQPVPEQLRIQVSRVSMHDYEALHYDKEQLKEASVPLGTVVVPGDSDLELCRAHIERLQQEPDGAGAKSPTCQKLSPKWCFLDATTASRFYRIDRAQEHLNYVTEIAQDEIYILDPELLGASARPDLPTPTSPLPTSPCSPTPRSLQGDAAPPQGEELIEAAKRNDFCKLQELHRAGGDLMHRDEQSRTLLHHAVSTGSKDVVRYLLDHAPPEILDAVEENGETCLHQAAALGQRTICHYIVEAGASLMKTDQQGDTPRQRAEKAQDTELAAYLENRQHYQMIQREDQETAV
The assay can be described thus: In vitro DGK inhibition assay, DGKzeta ADP Glo (in house). Format: biochemical. The settings on record: 2 nM DGKζ, 50 μM ATP, 125 uM DLG in liposomes, 1 hour reaction. An outline of the steps:
as §1

The test system of a further assay is MV-3 cells. In words: T-cell - TCB - MV3 killing assay. It is filed as cell-based, human. On the procedure:
All culturing steps are executed at 5% CO2, 37° C. and 95% humidity. MV-3 RFP cells are cultured in MV-3 medium (DMEM+10% FBS, 1× PenStrep and 0.5 μg/mL Puromycin) for at least 3 weeks. Cultured MV-3 cells at 80% confluency are washed once with PBS−− and trypsinized until detached. […] Cells are seeded with 100 μL/well into a 96-well plate (TTP, #92696), and placed for 40 minutes without moving at room temperature in order to achieve evenly distributed attachment of cells. Plates are then incubated until further use.
On the next day, expanded primary human T-cells are thawed and resuspended in T-cell medium to 4*10^6 cells/mL. For 3 hours, they are cultured in a 6-well plate with 6 mL per well at maximum. After culturing the T-cells, they are filtered through a cell strainer (Miltenyi Biotech, #130-041-407), counted again, and cell concentration is adjusted to 2*10^6 cells/mL.
MCSP-TCB or PBS are pre-diluted in T-cell medium (concentration depending on T-cell donor), 4 times more concentrated than the end-concentration. 60 μL/well of pre-dilutions are then distributed into a round bottom plate (Costar, #3799) according to plate layout. Compounds are added in a 9 pt dose response with the Tecan D300e Digital Dispenser, as well 4 times more concentrated than the end-concentration. DMSO concentration of all wells is adjusted to 0.8%, resulting in 0.2% as final concentration.
60 μL per well of T-cell suspension are added to the prepared round bottom plate and resuspended with a manual multichannel. 100 μL/well of the resuspended T-cell suspension including treatments are then transferred cautiously to the over-night cultured MV-3 cells according to plate layout. 100 μL T-cell medium only is added to the outer MV-3 wells only. Final compound DR is starting at 20 μM with a dilution factor of 3.333. Final TCB concentration is between 1.5 pM to 5 pM and was determined for each T-cell donor individually by running TCB titrations. For each donor, a TCB concentration was chosen which corresponds to 10-20% MV3 baseline cell killing in the absence of compound treatment. Positive control is the reference compound A1 which is added in a DR, as well as additional wells with only 20 μM. 20 μM of reference compound A1 represent the positive stimulator control, TCB only (DMSO wells) the neutral control.
After transfer of T-cells with treatment pre-dilutions, MV-3 cells are imaged by time-lapse microscopy using IncucyteZOOM™ (Essen BioScience, MI, USA). Imaging is performed every 3 hours for a total of 120 hours (10× objective, phase and red image channels, acquisition time 400 ms, Green/Red 4614 optical module). RFP object count per well is analysed in the IncucyteZOOM™ Software (Version 2019B Rev2) with a mask that was previously created and optimized for MV-3 cells. Raw data is exported as object count/well and values are normalized as % TCL compared to wells with MV-3 only, representing 100% growth and therefore 0% TCL.
Calculated % TCL values are analysed in Genedata Screener using Roche Normalization PCT_POS_CTRL with MCSP-TCB only set as Neutral Control and 20 μM of the reference compound A1 set as Stimulator Control/100%.
Induced TCL by compounds without TCB treatment or toxicity (observed in the PBS condition) were be flagged.

T1 sequence (P23743 whole entry): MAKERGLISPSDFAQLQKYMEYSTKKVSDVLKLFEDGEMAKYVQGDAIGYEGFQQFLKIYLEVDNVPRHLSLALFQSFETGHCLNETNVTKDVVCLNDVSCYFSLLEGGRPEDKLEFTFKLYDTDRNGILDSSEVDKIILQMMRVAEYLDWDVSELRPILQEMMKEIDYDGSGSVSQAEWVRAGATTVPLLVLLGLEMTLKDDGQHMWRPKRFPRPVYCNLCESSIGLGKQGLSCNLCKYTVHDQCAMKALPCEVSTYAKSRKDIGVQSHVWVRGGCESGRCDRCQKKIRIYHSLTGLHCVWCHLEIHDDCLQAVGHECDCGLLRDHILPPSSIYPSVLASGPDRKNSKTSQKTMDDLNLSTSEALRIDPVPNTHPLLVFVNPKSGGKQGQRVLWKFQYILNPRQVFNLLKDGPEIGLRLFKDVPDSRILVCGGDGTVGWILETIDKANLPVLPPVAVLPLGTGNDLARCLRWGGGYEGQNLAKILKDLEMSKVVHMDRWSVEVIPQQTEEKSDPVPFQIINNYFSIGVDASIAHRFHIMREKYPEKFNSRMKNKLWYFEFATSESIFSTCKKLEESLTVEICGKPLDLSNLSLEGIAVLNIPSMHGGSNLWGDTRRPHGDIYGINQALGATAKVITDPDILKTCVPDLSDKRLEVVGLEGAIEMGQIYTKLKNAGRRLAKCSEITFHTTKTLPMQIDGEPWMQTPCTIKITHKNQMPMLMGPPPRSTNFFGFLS

As usually defined, the IC50 is the concentration that inhibits the measured activity by half. Read a high IC50 as a need for much substance. One may read the Emax as the maximal effect, on the per cent scale that the assay sets. As a reminder, the EC50 is the concentration needed to bring the measured effect to its halfway point. In the case of `N[C@H]1CS(=O)(=O)c2cc(F)c(-c3noc(C4(CO)CCCO4)n3)cc2N(Cc2ccc(-c3noc(C(F)(F)F)n3)cc2)C1=O` (stereo partly drawn) [Example 18, (3R)-3-amino-8-fluoro-7-[5-[2-(hydroxymethyl)tetrahydrofuran-2-yl]-1,2,4-oxadiazol-3-yl]-1,1-dioxo-5-[[4-[5-(trifluoromethyl)-1,2,4-oxadiazol-3-yl]phenyl]methyl]-2,3-dihydro-1λ^6,5-benzothiazepin-4-one], the IC50 stood at 3870 nM in assay [1] and 151 nM in assay [2]. The maximal effect (Emax) with MV-3 cells (Homo sapiens, MV-3, 120 h, % TCL normalized: MCSP-TCB only = neutral control, 20 μM reference compound A1 = 100%, read-out: MSCP TCB killing MV-3 cells 5 d Emax (%)) came out at 67%. Further, the EC50 in the assay with MV-3 cells (primary human T-cells + MV-3 RFP cells, MCSP-TCB 1.5 pM-5 pM, 120 hours imaging, read-out: MSCP TCB killing MV-3 cells 5 d EC50) was determined as 29 nM.
On to `CC(C)(C#N)c1nnc(-c2ccc3c(c2)N(Cc2ccc(-c4ncc(C(F)(F)F)cn4)cc2)C(=O)[C@@H](N)CS3(=O)=O)o1` [Example 127, 2-[5-[(3R)-3-amino-1,1,4-trioxo-5-[[4-[5-(trifluoromethyl)pyrimidin-2-yl]phenyl]methyl]-2,3-dihydro-1λ^6,5-benzothiazepin-7-yl]-1,3,4-oxadiazol-2-yl]-2-methyl-propanenitrile], for which the values for the half-maximal inhibitory concentration (IC50) in assay [1] and in assay [2] were over 60000 nM and 2450 nM, respectively.
Taken in the same sequence, the figures for `CC(C)(C#N)c1nnc(-c2ccc3c(c2)N(Cc2ccc(-c4ccc(OC(F)(F)C(F)(F)F)cn4)cc2)C(=O)[C@@H](N)CS3(=O)=O)o1` [Example 129, 2-[5-[(3R)-3-amino-1,1,4-trioxo-5-[[4-[5-(1,1,2,2,2-pentafluoroethoxy)-2-pyridyl]phenyl]methyl]-2,3-dihydro-1λ^6,5-benzothiazepin-7-yl]-1,3,4-oxadiazol-2-yl]-2-methyl-propanenitrile] were 1680 nM and 948 nM.
As to `N[C@H]1CS(=O)(=O)c2ccc(-c3nnc(C4(C(F)F)CNC4)o3)cc2N(Cc2ccc(-c3ccc(C(F)(F)F)cc3)cc2)C1=O` [Example 152], the results for the IC50 in assay [1] and in assay [2] were over 60000 nM and 12200 nM, respectively.
Taken in the same sequence, the figures for `C[C@@](N)(c1nnc(-c2ccc3c(c2)N(Cc2ccc(-c4ccc(OC(F)(F)F)cn4)cc2)C(=O)[C@@H](N)CS3(=O)=O)o1)C(F)(F)F` [Example 153, (3R)-3-amino-7-[5-[(1R)-1-amino-2,2,2-trifluoro-1-methyl-ethyl]-1,3,4-oxadiazol-2-yl]-1,1-dioxo-5-[[4-[5-(trifluoromethoxy)-2-pyridyl]phenyl]methyl]-2,3-dihydro-1λ^6,5-benzothiazepin-4-one] were 2050 nM and 2250 nM.
In the case of `C[C@@](N)(c1nnc(-c2ccc3c(c2)N(Cc2ccc(-c4ccc(C(F)(F)F)cn4)cc2)C(=O)[C@@H](N)CS3(=O)=O)o1)C(F)(F)F` [Example 154, (3R)-3-amino-7-[5-[(1R)-1-amino-2,2,2-trifluoro-1-methyl-ethyl]-1,3,4-oxadiazol-2-yl]-1,1-dioxo-5-[[4-[5-(trifluoromethyl)-2-pyridyl]phenyl]methyl]-2,3-dihydro-1λ^6,5-benzothiazepin-4-one], the figures for the IC50 in assay [1] and in assay [2] were 23600 nM and 3100 nM, respectively.
Taken in the same sequence, the figures for `C[C@@](N)(c1nnc(-c2ccc3c(c2)N(Cc2ccc(-n4nnc(C(F)(F)F)n4)cc2)C(=O)[C@@H](N)CS3(=O)=O)o1)C(F)(F)F` [Example 156, (3R)-3-amino-7-[5-[(1R)-1-amino-2,2,2-trifluoro-1-methyl-ethyl]-1,3,4-oxadiazol-2-yl]-1,1-dioxo-5-[[4-[5-(trifluoromethyl)tetrazo 1-2-yl]phenyl]methyl]-2,3-dihydro-1λ^6,5-benzothiazepin-4-one] were 17800 nM and 2960 nM.
For `COC(=O)N1CC2CC(c3nnc(-c4ccc5c(c4)N(Cc4ccc(-c6noc(C(F)(F)F)n6)cc4)C(=O)[C@@H](N)CS5(=O)=O)o3)(C2)C1` [Example 158, methyl 1-[5-[(3R)-3-amino-1,1,4-trioxo-5-[[4-[5-(trifluoromethyl)-1,2,4-oxadiazol-3-yl]phenyl]methyl]-2,3-dihydro-1λ^6,5-benzothiazepin-7-yl]-1,3,4-oxadiazol-2-yl]-3-azabicyclo[3.1.1]heptane-3-carboxylate], the values for the IC50 in assay [1] and in assay [2] were over 60000 nM and 1130 nM, respectively.
Taken in the same sequence, the figures for `N[C@H]1CS(=O)(=O)c2ccc(-c3nnc(N4CCC(F)(F)CC4)o3)cc2N(Cc2ccc(-c3ccc(C(F)(F)F)cn3)cc2)C1=O` [Example 160] were 5180 nM and 922 nM.
Regarding `CC(C)(c1nnc(-c2ccc3c(c2)N(Cc2ccc(-c4ccc(OC(F)(F)F)cn4)cc2)C(=O)[C@@H](N)CS3(=O)=O)o1)C(F)(F)F` [Example 165, (3R)-3-amino-1,1-dioxo-7-[5-(2,2,2-trifluoro-1,1-dimethyl-ethyl)-1,3,4-oxadiazol-2-yl]-5-[[4-[5-(trifluoromethoxy)-2-pyridyl]phenyl]methyl]-2,3-dihydro-1λ^6,5-benzothiazepin-4-one], the IC50 in assay [1] is 1140 nM; in assay [2], 2220 nM.
On to `N[C@H]1CS(=O)(=O)c2ccc(-c3nnc(C(F)C(F)(F)F)o3)cc2N(Cc2ccc(-c3noc(C4CC4)n3)cc2)C1=O` (stereo partly drawn) [Example 168, (3R)-3-amino-5-[[4-(5-cyclopropyl-1,2,4-oxadiazol-3-yl)phenyl]methyl]-1,1-dioxo-7-[5-(1,2,2,2-tetrafluoroethyl)-1,3,4-oxadiazol-2-yl]-2,3-dihydro-1λ^6,5-benzothiazepin-4-one], for which the IC50 is over 62500 nM in assay [1] and 1600 nM in assay [2].
Turning to `CC(O)(c1nnc(-c2ccc3c(c2)N(Cc2ccc(-c4noc(C5CC5)n4)cc2)C(=O)[C@@H](N)CS3(=O)=O)o1)C(F)(F)F` (some centres unmarked) [Example 170], the half-maximal inhibitory concentration (IC50) was over 62500 nM in assay [1] and 2000 nM in assay [2].
The matching figures for `N[C@H]1CS(=O)(=O)c2ccc(-c3nnc(C(N)(C4CC4)C(F)(F)F)o3)cc2N(Cc2ccc(-c3noc(C4CC4)n3)cc2)C1=O` (some centres unmarked) [Example 171]: over 60000 nM and 722 nM.
The matching figures for `N#CC1(c2nnc(-c3ccc4c(c3)N(Cc3ccc(-c5ccc(OC(F)(F)F)cn5)cc3)C(=O)[C@@H](N)CS4(=O)=O)o2)CCC1` [Example 172, 1-[5-[(3R)-3-amino-1,1,4-trioxo-5-[[4-[5-(trifluoromethoxy)-2-pyridyl]phenyl]methyl]-2,3-dihydro-1λ^6,5-benzothiazepin-7-yl]-1,3,4-oxadiazol-2-yl]cyclobutanecarbonitrile]: 2520 nM and 732 nM.
For the compound `CC(C)(CC#N)c1nnc(-c2ccc3c(c2)N(Cc2ccc(-c4ccc(OC(F)(F)F)cn4)cc2)C(=O)[C@@H](N)CS3(=O)=O)o1` [Example 175, 3-[5-[(3R)-3-amino-1,1,4-trioxo-5-[[4-[5-(trifluoromethoxy)-2-pyridyl]phenyl]methyl]-2,3-dihydro-1λ^6,5-benzothiazepin-7-yl]-1,3,4-oxadiazol-2-yl]-3-methyl-butanenitrile], the IC50 came out at 961 nM in assay [1] and 734 nM in assay [2].

Source of the values: patent US20260138976A1 (Hoffmann-La Roche Inc., priority 2022, published 2026).
